Measurements: patent US9012500B2, “PKC-ε activator” (Nishizaki Bioinformation Research Institute, priority 2010, dated 2015)

Molecular target: T1, PKC-ε (Rattus norvegicus, UniProt P09216)
T1 construct: PC-12 cells were transfected with PKC-ε siRNA or NC siRNA; endogenous in cells; host or cells: rat PC-12 cells
T1 sequence (P09216 1-737): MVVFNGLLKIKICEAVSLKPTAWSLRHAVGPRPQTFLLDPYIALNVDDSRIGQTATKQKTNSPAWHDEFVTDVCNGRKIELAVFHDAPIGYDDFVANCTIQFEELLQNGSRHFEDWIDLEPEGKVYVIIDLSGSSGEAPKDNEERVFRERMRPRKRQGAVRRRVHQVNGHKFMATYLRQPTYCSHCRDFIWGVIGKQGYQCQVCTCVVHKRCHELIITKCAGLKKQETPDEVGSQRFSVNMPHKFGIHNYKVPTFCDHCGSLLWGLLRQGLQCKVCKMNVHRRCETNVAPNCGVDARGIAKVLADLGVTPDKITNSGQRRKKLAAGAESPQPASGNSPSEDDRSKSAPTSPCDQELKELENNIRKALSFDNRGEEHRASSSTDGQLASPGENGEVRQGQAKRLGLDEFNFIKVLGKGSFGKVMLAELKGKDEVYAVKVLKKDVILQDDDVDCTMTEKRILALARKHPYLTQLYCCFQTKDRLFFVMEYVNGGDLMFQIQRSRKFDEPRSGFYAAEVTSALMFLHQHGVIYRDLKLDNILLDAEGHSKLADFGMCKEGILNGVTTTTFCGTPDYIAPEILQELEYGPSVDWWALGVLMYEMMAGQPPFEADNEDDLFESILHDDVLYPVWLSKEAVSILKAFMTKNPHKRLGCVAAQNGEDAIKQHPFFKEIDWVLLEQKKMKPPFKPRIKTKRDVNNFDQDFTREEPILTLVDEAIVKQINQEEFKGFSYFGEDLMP
Assay: Intracellular PKC assay after knockdown of PKC-ε (siRNA) in PC-12 cells
Assay type: cell-based
Conditions: PKC-ε siRNA vs NC siRNA, FIG. 3
Experimental: According to the method described in a publication [Kanno T et al., J Lipid Res 47 (6):1146-1156, 2006], the PKC activity of rat PC-12 cells was assayed. The cells were treated with each DCP-LA optical isomer at 37° C. for 10 min. The treatment was performed in an extracellular solution [137 mM NaCl, 5.4 mM KCl, 10 mM MgCl2, 5 mM ethyleneglycol-bis(2-aminoethylether)-N,N,N′,N′-tetraacetic acid (EGTA), 0.3 mM Na2HPO4, 0.4 mM K2HPO4 and 20 mM 4-(2-hydroxyethyl)-1-piperazin-ethanesulfonic acid, pH 7.2]. Then, the cells were rinsed with 100 μl of phosphate-buffered saline (PBS) in the absence of Ca^2+, and incubated in an extracellular solution (50 μl) containing 50 μg/ml digitonin, 25 mM glycerol 2-phosphate, 200 μM ATP and 100 μM synthetic PKC substrate peptide (Pyr-Lys-Arg-Pro-Ser-Gln-Arg-Ser-Lys-Tyr-Leu (SEQ ID NO: 1); MW, 1,374; Pyr: […]) at 37° C. for 15 min. […] A substrate peptide peak and a new resultant product peak were detected at the absorbance of 214 nm (SPD-10Avp UV-VIS detector, Shimadzu Co., Kyoto, Japan). […] The molecular weight was calculated from the two standard spectra of bradykinin (MW 1060.2) and substance P (MW 1672.9).
The areas of the non-phosphorylated and phosphorylated substrate peptides were measured (total area corresponds to the concentration of PKC substrate peptide used). […]

CCCCC[C@@H]1C[C@@H]1C[C@@H]1C[C@H]1CCCCCCCC(=O)O [α,β-DCP-LA, 8-[(1R,2S)-2-{(1R,2R)-2-pentylcyclopropylmethyl}-cyclopropyl]octanoic acid]
PKC activation induced by the compound after knocking down PKC-ε: inhibited by knocking down PKC-ε
